Reference: paper PMC4821443 (MedChemComm, 2015)
Blank lines part the entries; values can stand above or below the compound they belong to.

How the values were obtained:
[1] = tested on: breast cancer subpanel (six cell lines); assay: NCI-60 screen, breast cancer subpanel summary; type: cell-based; conditions: Homo sapiens, T47D, read-out: GI50 values range, breast cancer subpanel
tubulin = tubulin (Sus scrofa, UniProt P02550+P02554); assay: In vitro tubulin polymerization assay; type: biochemical; conditions: at concentrations as high as 200 µM (data not shown)
Chain of tubulin (P02550 whole entry): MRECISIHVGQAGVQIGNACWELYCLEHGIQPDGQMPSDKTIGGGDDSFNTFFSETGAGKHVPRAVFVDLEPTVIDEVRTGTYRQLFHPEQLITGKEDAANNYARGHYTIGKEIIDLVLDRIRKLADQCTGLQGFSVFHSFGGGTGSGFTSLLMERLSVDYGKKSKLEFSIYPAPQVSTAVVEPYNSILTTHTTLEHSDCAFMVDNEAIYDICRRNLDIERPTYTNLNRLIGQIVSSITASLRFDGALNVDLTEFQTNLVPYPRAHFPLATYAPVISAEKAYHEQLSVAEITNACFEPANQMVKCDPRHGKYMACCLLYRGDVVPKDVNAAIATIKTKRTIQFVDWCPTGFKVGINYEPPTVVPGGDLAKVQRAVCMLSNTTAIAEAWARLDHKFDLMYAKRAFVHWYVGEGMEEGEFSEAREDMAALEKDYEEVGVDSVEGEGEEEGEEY
Chain of tubulin (P02554 whole entry): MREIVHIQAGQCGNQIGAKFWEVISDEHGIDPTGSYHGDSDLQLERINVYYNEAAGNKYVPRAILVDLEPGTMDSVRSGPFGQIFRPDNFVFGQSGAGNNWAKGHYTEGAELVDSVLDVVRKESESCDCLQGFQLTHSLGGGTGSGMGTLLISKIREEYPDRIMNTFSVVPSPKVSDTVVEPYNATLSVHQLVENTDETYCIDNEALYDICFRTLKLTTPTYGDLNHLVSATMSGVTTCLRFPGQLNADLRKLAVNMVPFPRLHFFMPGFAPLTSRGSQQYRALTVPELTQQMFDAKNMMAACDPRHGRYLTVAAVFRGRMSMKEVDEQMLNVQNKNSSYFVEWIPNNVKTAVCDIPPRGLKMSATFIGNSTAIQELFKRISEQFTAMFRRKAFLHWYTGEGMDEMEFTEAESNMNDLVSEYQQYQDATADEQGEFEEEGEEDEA

[2] = tested on: panel of 60 human cancer cell lines; assay: NCI-60 cell line anti-cancer screen, whole panel summary; type: cell-based; conditions: read-out: average GI50 value against all the cancer cell lines screened, NCI-60 panel

SMILES: COc1cc(-c2n[nH]nc2-c2cc3ccccc3s2)cc(OC)c1OC [Compound 8a, 4-(benzo[b]thiophen-2-yl)-5-(3,4,5-trimeth-oxyphenyl)-2H-1,2,3-triazole]
GI50 [1]: ≤ 14 nM

inhibition of tubulin polymerization (tubulin): failed to inhibit tubulin polymerization
SMILES: COc1cc(-c2nn(C)nc2-c2cc3ccccc3s2)cc(OC)c1OC [Compound 9, 4-(benzo[b]thiophen-2-yl)-2-methyl-5-(3,4,5-trimethoxyphenyl)-2H-1,2,3-triazole]
GI50 [1]: 40 to 1600 nM

SMILES: COc1ccc(-c2n[nH]nc2-c2csc3ccccc23)cc1OC [Compound 11b]
GI50 [1]: 630 to 3210 nM

SMILES: COc1cc(-c2n[nH]nc2-c2c[nH]c3ccccc23)cc(OC)c1OC [Compound 11d]
GI50 [1]: 28 to 89 nM | GI50 [2]: 424 nM

SMILES: COc1cc(OC)cc(-c2n[nH]nc2-c2c[nH]c3ccccc23)c1 [Compound 11e]
GI50 [1]: 17 to 76 nM | GI50 [2]: 856 nM
